Assay results as given in patent US11661422B2, “Tricyclic urea compounds as JAK2 V617F inhibitors” (Incyte Corporation, priority 2020, dated 2023).
Counter-ions that a name gives are not always drawn.

Assays:
[1] = molecular target: pseudo-kinase domain (JH2, amino-acids 536-812) of human V617F mutant JAK2 (Homo sapiens (Human), UniProt O60674, F794H/V617F/W659A/W777A); assay: JAK2 LanthaScreen JH2-V617F Binding Assay; conditions: JAK2 JH2-V617F 0.26 nM, 50 nM fluorescent tracer, 1 hour at 25° C.; read-out: JH2 BIND V617F IC50
pseudo-kinase domain (JH2, amino-acids 536-812) of human V617F mutant JAK2, sequence (O60674 536-812 V617F/W659A/W777A/F794H): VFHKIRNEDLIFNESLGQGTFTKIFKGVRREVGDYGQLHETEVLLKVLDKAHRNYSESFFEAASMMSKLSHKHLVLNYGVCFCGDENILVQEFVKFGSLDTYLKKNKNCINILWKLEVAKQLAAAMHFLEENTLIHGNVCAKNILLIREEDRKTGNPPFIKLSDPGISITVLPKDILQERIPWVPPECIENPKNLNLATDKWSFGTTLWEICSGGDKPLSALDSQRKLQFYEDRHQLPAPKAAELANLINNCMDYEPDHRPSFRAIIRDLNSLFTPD
Experimental: The assay was conducted in black 384-well polystyrene plates in a final reaction volume of 20 μL. […] Non-specific binding was accessed in the presence of 2 mM ATP. After incubation for 1 hour at 25° C., LanthaScreen signals were read on a PHERAstar FS plate reader (BMG LABTECH). Data was analyzed with IDBS XLfit and GraphPad Prism 5.0 software using a four parameter dose response curve to determine IC50 for each compound.

[2] = molecular target: pseudo-kinase domain (JH2, amino-acids 536-812) of human Wild Type JAK2 (Homo sapiens (Human), UniProt O60674, F794H/W659A/W777A); assay: JAK2 LanthaScreen JH2-WT Binding Assay; conditions: JAK2 JH2-WT 0.145 nM, 50 nM fluorescent tracer, 1 hour at 25° C.; read-out: JH2 BIND WT IC50
pseudo-kinase domain (JH2, amino-acids 536-812) of human Wild Type JAK2, sequence (O60674 536-812 W659A/W777A/F794H): as the sequence (O60674 536-812 V617F/W659A/W777A/F794H) above, with F82V counted along it
Experimental: Example B. JAK2 LanthaScreen JH2-WT Binding Assay
(§1) The assay was conducted in black 384-well polystyrene plates in a final reaction volume of 20 μL. JAK2 JH2-WT (0.145 nM) was incubated with compounds (100 nL serially diluted in DMSO) in the presence of 50 nM Fluorescent JAK2-JH2 Tracer (MedChem Express Catalog #HY-102055) and 0.25 nM Streptavidin-Tb cryptate (Cisbio Part #610SATLB) in assay buffer (50 mM Tris, pH=7.5, 10 mM MgCl2, 0.01% Brij-35, 0.1% BSA, 1 mM EGTA, 5% Glycerol and 5 mM DTT). Non-specific binding was accessed in the presence of 2 mM ATP. After incubation for 1 hour at 25° C., LanthaScreen signals were read on a PHERAstar FS plate reader (BMG LABTECH). Data was analyzed with IDBS XLfit and GraphPad Prism 5.0 software using a four parameter dose response curve to determine IC50 for each compound.

[3] = molecular target: catalytic domain (JH1, amino acids 808-1132) of human JAK2 (Homo sapiens (Human), UniProt O60674); assay: JAK2 HTRF Enzyme Activity Assay; type: biochemical; conditions: JAK2 0.015 nM, ATP (30 μM or 1 mM), 60 minutes at 25° C.
catalytic domain (JH1, amino acids 808-1132) of human JAK2, sequence (O60674 808-1132): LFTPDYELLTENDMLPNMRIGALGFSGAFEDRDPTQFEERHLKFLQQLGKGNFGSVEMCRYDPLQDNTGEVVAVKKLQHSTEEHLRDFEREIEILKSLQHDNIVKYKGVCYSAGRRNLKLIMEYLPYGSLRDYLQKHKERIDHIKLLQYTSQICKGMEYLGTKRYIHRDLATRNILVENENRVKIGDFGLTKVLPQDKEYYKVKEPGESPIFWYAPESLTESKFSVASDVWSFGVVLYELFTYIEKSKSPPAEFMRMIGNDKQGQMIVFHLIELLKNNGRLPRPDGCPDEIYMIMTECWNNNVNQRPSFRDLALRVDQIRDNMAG
Experimental: Example D. JAK2 HTRF Enzyme Activity Assay
JAK2 enzyme activity assays utilize catalytic domain (JH1, amino acids 808-1132) of human JAK2 expressed as N-terminal His-tagged protein in a baculovirus expression system (BPS Bioscience, Catalog #40450). The assays was conducted in black 384-well polystyrene plates in a final reaction volume of 20 μL. JAK2 (0.015 nM) was incubated with compounds (100 nL serially diluted in DMSO) in the presence of ATP (30 μM or 1 mM) and 500 nM Biotin-labeled […] (SEQ ID NO.: 1) peptide (BioSource International, custom synthesis) in assay buffer (50 mM Tris, pH=7.5, 10 mM MgCl2, 0.01% Brij-35, 0.1% BSA, 1 mM EGTA, 5% Glycerol and 5 mM DTT) for 60 minutes at 25° C. The reactions were stopped by the addition of 10 μL of detection buffer (50 mM Tris, pH 7.8, 0.5 mg/mL BSA, 150 mM NaCl), supplemented with EDTA, LANCE Eu-W1024 anti-phosphotyrosine (PY20), (PerkinElmer, Catalog #AD0067) and Streptavidin SureLight APC (PerkinElmer Catalog #CR130-100), for a final concentration of 15 mM, 1.5 nM and 75 nM, respectively. HTRF signals were read after 30 minutes incubation at room temperature on a PHERAstar FS plate reader (BMG LABTECH). Data was analyzed with IDBS XLfit and GraphPad Prism 5.0 software using a four parameter dose response curve to determine IC50 for each compound.

[4] = molecular target: catalytic domain (JH1, amino acids 826-1132) of human JAK2 (Homo sapiens (Human), UniProt O60674); assay: JAK2 LanthaScreen JH1 Binding Assay; conditions: JAK2 JH1 1.5 nM, 50 nM fluorescent tracer, 2 hours at 25° C.; read-out: JH1 BIND IC50
catalytic domain (JH1, amino acids 826-1132) of human JAK2, sequence (O60674 826-1132): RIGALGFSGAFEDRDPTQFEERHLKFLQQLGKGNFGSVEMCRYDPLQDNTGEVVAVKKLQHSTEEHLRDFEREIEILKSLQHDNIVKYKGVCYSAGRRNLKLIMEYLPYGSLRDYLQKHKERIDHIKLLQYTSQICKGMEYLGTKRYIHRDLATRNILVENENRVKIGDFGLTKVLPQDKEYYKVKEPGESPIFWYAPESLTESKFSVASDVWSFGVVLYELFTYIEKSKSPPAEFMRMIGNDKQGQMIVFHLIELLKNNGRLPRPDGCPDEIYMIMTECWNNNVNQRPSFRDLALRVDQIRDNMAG
Experimental: Example A. JAK2 LanthaScreen JH1 Binding Assay
as §1, with “JAK2 JH1 binding assay utilizes catalytic domain (JH1, amino acids 826-1132) of human JAK2 expressed as N-terminal FLAG-tagged, biotinylated protein in a baculovirus expression system (Carna Biosciences, Product #08-445-20N). The” for “The”, “JH1 (1.5” for “JH2-WT (0.145”, “JAK2-JH1” for “JAK2-JH2”, “Tracer” for “Tracer (MedChem Express Catalog #HY-102055)”, “0.5” for “0.25”, “2 hours” for “1 hour”

Row | Compound | IC50 [1] | IC50 [2] | IC50 [3] | IC50 [4]
1 | CC1c2c(cnc3[nH]c(-c4ccc(CN5CCC(S(C)(=O)=O)CC5)cc4)cc23)N(C)C(=O)N1c1ccc(C(=O)O)cc1 (racemic) [Example 10, 4-(1,4-Dimethyl-8-(4-((4-(methylsulfonyl)piperidin-1-yl)methyl)phenyl)-3-oxo-1,3,4,7-tetrahydro-2H-pyrrolo[3′,2′:5,6]pyrido[3,4-d]pyrimidin-2-yl)benzoic Acid] | 100 to 500 nM | ≤ 100 nM | 1000 to 2500 nM | 1000 to 2500 nM
2 | CC(C(N)=O)n1cc(-c2ccc(-c3c(-c4ccc(CN5CCC(S(C)(=O)=O)CC5)cc4)[nH]c4ncc5c(c34)CN(C(C)(C)C)C(=O)N5C)cc2)cn1 (racemic) [Example 19, 2-(4-(4-(2-(tert-Butyl)-4-methyl-8-(4-((4-(methylsulfonyl)piperidin-1-yl)methyl)phenyl)-3-oxo-2,3,4,7-tetrahydro-1H-pyrrolo[3′,2′:5,6]pyrido[3,4-d]pyrimidin-9-yl)phenyl)-1H-pyrazol-1-yl)propanamide Trifluoroacetic Acid Salt] | ≤ 100 nM | ≤ 100 nM | ≤ 100 nM | ≤ 100 nM
3 | CN1C(=O)NCc2c1cnc1[nH]c(-c3ccc(CN4CCC(S(C)(=O)=O)CC4)cc3)cc21 [Example 1, 4-Methyl-8-(4-((4-(methylsulfonyl)piperidin-1-yl)methyl)phenyl)-1,2,4,7-tetrahydro-3H-pyrrolo[3′,2′:5,6]pyrido[3,4-d]pyrimidin-3-one] | 500 to 1000 nM | 100 to 500 nM | ≤ 100 nM | ≤ 100 nM
4 | CN1C(=O)N(c2ccccc2)Cc2c1cnc1[nH]c(-c3ccc(CN4CCC(S(C)(=O)=O)CC4)cc3)cc21 [Example 2, 4-Methyl-8-(4-((4-(methylsulfonyl)piperidin-1-yl)methyl)phenyl)-2-phenyl-1,2,4,7-tetrahydro-3H-pyrrolo[3′,2′:5,6]pyrido[3,4-b]pyrimidin-3-one] | 500 to 1000 nM | 100 to 500 nM | ≤ 100 nM | ≤ 100 nM
5 | CN1C(=O)N(c2ccc(C(=O)O)cc2)Cc2c1cnc1[nH]c(-c3ccc(CN4CCC(S(C)(=O)=O)CC4)cc3)cc21 [Example 3, 4-(4-Methyl-8-(4-((4-(methylsulfonyl)piperidin-1-yl)methyl)phenyl)-3-oxo-1,3,4,7-tetrahydro-2H-pyrrolo[3′,2′:5,6]pyrido[3,4-d]pyrimidin-2-yl)benzoic Acid] | ≤ 100 nM | ≤ 100 nM | 1000 to 2500 nM | 1000 to 2500 nM
6 | CS(=O)(=O)C1CCN(Cc2ccc(-c3cc4c5c(cnc4[nH]3)NC(=O)N(C3CCCCC3)C5)cc2)CC1 [Example 5, 2-Cyclohexyl-8-(4-((4-(methylsulfonyl)piperidin-1-yl)methyl)phenyl)-1,2,4,7-tetrahydro-3H-pyrrolo[3′,2′:5,6]pyrido[3,4-d]pyrimidin-3-one] | 500 to 1000 nM | 100 to 500 nM | ≤ 100 nM | ≤ 100 nM
7 | CS(=O)(=O)C1CCN(Cc2ccc(-c3cc4c5c(cnc4[nH]3)NC(=O)N(C3CCN(S(N)(=O)=O)CC3)C5)cc2)CC1 [Example 7, 4-(8-(4-((4-(methylsulfonyl)piperidin-1-yl)methyl)phenyl)-3-oxo-1,3,4,7-tetrahydro-2H-pyrrolo[3′,2′:5,6]pyrido[3,4-d]pyrimidin-2-yl)piperidine-1-sulfonamide] | 1000 to 2500 nM | 500 to 1000 nM | ≤ 100 nM | ≤ 100 nM
8 | COCCNc1ccc(N2Cc3c(cnc4[nH]c(-c5ccc(CN6CCC(S(C)(=O)=O)CC6)cc5)cc34)N(C)C2=O)cc1 [Example 8, 2-(4-((2-Methoxyethyl)amino)phenyl)-4-methyl-8-(4-((4-(methylsulfonyl)piperidin-1-yl)methyl)phenyl)-1,2,4,7-tetrahydro-3H-pyrrolo[3′,2′:5,6]pyrido[3,4-d]pyrimidin-3-one] | 500 to 1000 nM | 100 to 500 nM | 100 to 500 nM | 100 to 500 nM
9 | CN1C(=O)N(c2ccc(NC(=O)CC#N)cc2)Cc2c1cnc1[nH]c(-c3ccc(CN4CCC(S(C)(=O)=O)CC4)cc3)cc21 [Example 9, 2-Cyano-N-(4-(4-methyl-8-(4-((4-(methylsulfonyl)piperidin-1-yl)methyl)phenyl)-3-oxo-1,3,4,7-tetrahydro-2H-pyrrolo[3′,2′:5,6]pyrido[3,4-d]pyrimidin-2-yl)phenyl)acetamide] | 100 to 500 nM | 100 to 500 nM | 100 to 500 nM | 100 to 500 nM
10 | COc1ccc(-c2c(-c3ccc(CN4CCC(S(C)(=O)=O)CC4)cc3)[nH]c3ncc4c(c23)CN(c2ccc(C(=O)Nc3cccnc3)cc2)C(=O)N4C)cc1 [Example 11, 4-(9-(4-Methoxyphenyl)-4-methyl-8-(4-((4-(methylsulfonyl)piperidin-1-yl)methyl)phenyl)-3-oxo-1,3,4,7-tetrahydro-2H-pyrrolo[3′,2′:5,6]pyrido[3,4-d]pyrimidin-2-yl)-N-(pyridin-3-yl)benzamide, Bistrifluoroacetic Acid Salt] | ≤ 100 nM | ≤ 100 nM | > 2500 nM | > 2500 nM
11 | CNC(=O)c1ccc(N2Cc3c(cnc4[nH]c(-c5ccc(CN6CCC(S(C)(=O)=O)CC6)cc5)c(-c5ccc(OC)cc5)c34)N(C)C2=O)cc1 [Example 12, 4-(9-(4-methoxyphenyl)-4-methyl-8-(4-((4-(methylsulfonyl)piperidin-1-yl)methyl)phenyl)-3-oxo-1,3,4,7-tetrahydro-2H-pyrrolo[3′,2′:5,6]pyrido[3,4-d]pyrimidin-2-yl)-N-methylbenzamide, trifluroacetate] | ≤ 100 nM | ≤ 100 nM | 1000 to 2500 nM | 1000 to 2500 nM
12 | COc1ccc(-c2c(-c3ccc(CN4CCC(S(C)(=O)=O)CC4)cc3)[nH]c3ncc4c(c23)CN(c2ccc(C(=O)NCC(=O)NNCc3ccccc3)cc2)C(=O)N4C)cc1 [Example 13, N-(2-(2-Benzylhydrazineyl)-2-oxoethyl)-4-(9-(4-methoxyphenyl)-4-methyl-8-(4-((4-(methylsulfonyl)piperidin-1-yl)methyl)phenyl)-3-oxo-1,3,4,7-tetrahydro-2H-pyrrolo[3′,2′: 5,6]pyrido[3,4-d]pyrimidin-2-yl)benzamide, TFA] | – | – | 1000 to 2500 nM | 1000 to 2500 nM
